In patent publication US20070203118A1, “SUBSTITUTED TETRAHYDROISOQUINOLINES USED IN THE FORM OF MMP INHIBITORS, METHOD FOR THE PRODUCTION AND USE THEREOF IN THE FORM OF DRUGS” (SANOFI-AVENTIS DEUTSCHLAND GMBH, priority 2004, published 2007) one finds IC50 data, which are given here for 10 compounds.

A word on the IC50: it is the concentration that gives 50% inhibition. Higher therefore signals weaker potency.

Assay [1] has as its target T1, catalytic domain of human stromelysin (MMP-3) (Homo sapiens, UniProt P08254).
T1 construct: Preparation and Determination of the Enzymatic Activity of the Catalytic Domain of Human Stromelysin (MMP-3); made in house
Kind of assay: Enzymatic activity of the catalytic domain of human stromelysin (MMP-3), fluorogenic substrate. It counts as biochemical. On the procedure: Preparation and Determination of the Enzymatic Activity of the Catalytic Domain of Human Stromelysin (MMP-3) and of Neutrophil Collagenase (MMP-8)
The two enzymes stromelysin (MMP-3) and neutrophil collagenase (MMP-8) were prepared by the method of Ye et al. (Biochemistry; 31 (1992) pages 11 231-11 235). The enzymic activity or the effect of the enzyme inhibitor was measured by incubating 10 μl of enzyme solution with 10 μl of a 3% strength (v/v) buffered dimethyl sulfoxide solution which contained the enzyme inhibitor where appropriate, for 15 minutes. After addition of 10 μl of a 3% strength (v/v) aqueous dimethyl sulfoxide solution which contained 1 mmol/l of the substrate, the enzymic reaction was followed by fluorescence spectroscopy (328 nm (ex)/393 nm(em)). The enzymic activity is presented as increase in extinction/minute.
The IC50 values listed in Table 4 were determined as the inhibitor concentrations leading in each case to 50% inhibition of the enzyme. The buffer solution contained 0.05% Brij (Sigma, Deisenhofen, Germany) and 0.1 mol/l Tris/HCl, 0.1 mol/l NaCl, 0.01 mol/l CaCl2 and 0.1 mol/l piperazine-N,N′-bis[2-ethanesulfonic acid] (pH=7.5).
The MMP-3 enzyme solution contained 2.3 μg/ml and the MMP-8 enzyme solution 0.6 μg/ml of one of the enzyme domains prepared by the method of Ye et al. The substrate solution contained 1 mmol/l of the fluorogenic substrate (7-methoxycoumarin-4-yl)acetyl-Pro-Leu-Gly-Leu-3-(2′,4′-dinitrophenyl)-L-2,3-diaminopropionyl-Ala-Arg-NH2 (Bachem, Heidelberg, Germany).

Assay [2] concerns the target T2, catalytic domain of human collagenase-1 (MMP-1) (Homo sapiens, UniProt P03956).
T2 construct: Determination of the Enzymatic Activity of the Catalytic Domain of Human Collagenase-1 (MMP-1); purchased Biocol, Potsdam MMP1
T2 sequence (P03956 100-269 limits assumed): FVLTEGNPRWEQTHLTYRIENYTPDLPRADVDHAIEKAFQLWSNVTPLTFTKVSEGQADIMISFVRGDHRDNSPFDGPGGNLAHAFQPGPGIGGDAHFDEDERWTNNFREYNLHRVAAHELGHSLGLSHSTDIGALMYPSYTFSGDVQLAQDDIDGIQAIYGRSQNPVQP
In words: Enzymatic activity of the catalytic domain of human collagenase-1 (MMP-1), fluorogenic substrate. Type of assay: biochemical. On the procedure:
Determination of the Enzymatic Activity of the Catalytic Domain of Human Collagenase-1 (MMP-1)
Activation of the Pro enzyme: 2 parts by volume of Pro enzyme are incubated with 1 part by volume of APMA solution at 37° C. for 1 hour. The APMA solution is prepared from a 10 mmol/l p-aminophenylmercuric acetate solution in 0.1 mmol/l NaOH by dilution with 3 parts by volume of tris/HCl buffer pH7.5 (see below). The pH is adjusted to between 7.0 and 7.5 by adding 1 mmol/l HCl. After activation of the enzyme, it is diluted with the tris/HCl buffer to a concentration of 2.5 μg/ml.
The enzymic activity is measured by incubating 10 μl of enzyme solution with 10 μl of a 3% strength (v/v) buffered dimethyl sulfoxide solution (reaction 1) for 15 minutes. The enzyme inhibitor activity is measured by incubating 10 μl of enzyme solution with 10 μl of a 3% strength (v/v) buffered dimethyl sulfoxide solution which contains the enzyme inhibitor (reaction 2).
The enzymic reaction both in the case of reaction 1 and in the case of reaction 2 is followed after addition of 10 μl of a 3% strength (v/v) aqueous dimethyl sulfoxide solution which contains 0.3 mmol/l of the substrate by fluorescence spectroscopy (328 nm (extinction)/393 nm (emission)), and the enzymic activity is presented as increase in extinction per minute.
The effect of the inhibitor is calculated as percentage inhibition by the following formula: % inhibition=100−[(increase in extinction/minute in reaction 2)/increase in extinction/minute in reaction 1)×100].
The IC50, i.e. the inhibitor concentration necessary for 50% inhibition of the enzymic activity, is determined graphically by plotting the percentage inhibitions at various inhibitor concentrations.
The buffer solution contains 0.05% Brij (Sigma, Deisenhofen, Germany) and 0.1 mol/l tris/HCl, 0.1 mol/l NaCl, 0.01 mol/l CaCl2 (pH=7.5).
The enzyme solution contains 2.5 μg/ml of the enzyme domain.
The substrate solution contains 0.3 mmol/l of the fluorogenic substrate (7-methoxycoumarin-4-yl)acetyl-Pro-Leu-Gly-Leu-3-(2′,4′-dinitrophenyl)-L-2,3-diaminopropionyl-Ala-Arg-NH2 (Bachem, Heidelberg, Germany).

T1 sequence (P08254 100-272 limits assumed): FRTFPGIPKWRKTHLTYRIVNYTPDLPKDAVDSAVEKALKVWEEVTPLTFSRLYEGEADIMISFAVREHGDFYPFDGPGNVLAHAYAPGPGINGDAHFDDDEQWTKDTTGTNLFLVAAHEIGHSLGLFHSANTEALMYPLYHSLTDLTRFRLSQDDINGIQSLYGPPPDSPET

For the compound `O=C(NO)[C@H]1c2ccccc2CCN1S(=O)(=O)c1ccc(Oc2ccc(OC(F)(F)F)cc2)nc1` [Compound 43, (R)-2-[6-(4-trifluoromethoxyphenoxy)pyridine-3-sulfonyl]-1,2,3,4-tetrahydro-isoquinoline-1-hydroxycarboxamide], the results for the IC50 in assay [1] and in assay [2] were 300 nM and over 10000 nM, respectively.

In the case of “2-{2-[4-(4-fluorophenoxy)phenyl]ethanesulfonyl}-1,2,3,4-tetrahydroisoquinoline-1-hydroxycarboxamide [Compound 20]”, the figures for the IC50 in assay [1] and in assay [2] were 23 nM and 300 nM, respectively.

Consider `COc1ccc(F)c2c1[C@H](C(=O)NO)N(S(=O)(=O)c1ccc(-c3ccc(Cl)cc3)cc1)CC2` [Compound 18], for which the half-maximal inhibitory concentration (IC50) in assay [1] was 800 nM; in assay [2], 4000 nM.

With `O=C(NO)[C@H]1c2ccccc2CCN1S(=O)(=O)c1ccc(Oc2ccncc2)cc1` [Compound 11], the IC50 in assay [1] is 25 nM; in assay [2] it was 500 nM.

`O=C(NO)[C@H]1c2ccccc2CCN1S(=O)(=O)c1ccc(Oc2ccc(Cl)cc2)cc1` [Compound 9]: the half-maximal inhibitory concentration (IC50) in assay [1] stood at 23 nM; in assay [2], 42 nM.

With `O=C(NO)[C@H]1c2ccccc2CCN1S(=O)(=O)c1ccc(Oc2ccc(C(F)(F)F)cc2)cc1` [Compound 21, (R)-2-[4-(4-trifluoromethylphenoxy)benzenesulfonyl]-1,2,3,4-tetrahydro-isoquinoline-1-hydroxycarboxamide], the IC50 was found to be 33 nM in assay [1] and 1000 nM in assay [2].

As for `O=C(NO)[C@H]1c2ccccc2CCN1S(=O)(=O)c1ccc(Oc2ccc(Cl)cc2)nc1` [Compound 45, (R)-2-[6-(4-chlorophenoxy)pyridine-3-sulfonyl]-1,2,3,4-tetrahydroisoquinoline-1-hydroxycarboxamide], the half-inhibitory concentration (IC50) was determined as 45 nM in assay [1] and 2000 nM in assay [2].

As to `COc1cc2c(cc1OC)[C@@H](C(=O)NO)N(S(=O)(=O)c1ccc(-c3ccc(Cl)cc3)cc1)CC2` [Compound 15], the IC50 stood at 20 nM in assay [1] and 300 nM in assay [2].

For `O=C(NO)[C@H]1c2ccccc2CCN1S(=O)(=O)c1ccc(Oc2ccc(OCC(F)(F)F)cc2)cc1` [Compound 22], the 50% inhibitory concentration (IC50) turned out to be 520 nM in assay [1] and 1600 nM in assay [2].

As to “(R)-4-(1-hydroxycarbamoyl-3,4-dihydro-1H-isoquinoline-2-sulfonyl)phenyl benzoate [Compound 48]”, the values for the IC50 in assay [1] and in assay [2] were 26 nM and 89 nM, respectively.
